Source: PMC5597593, “Polyphenols journey through blood-brain barrier towards neuronal protection” (Scientific Reports, 2017)
Entries after “also recorded” stand apart in the source; their conditions may differ.

Key:
[1] = set-up: method as in PMID 25571923; details: human plasma samples; cited from earlier work
HBMEC line [2] = assay: Endothelial transport across confluent HBMEC two chamber BBB model, LC-Orbitrap MS; assay type: in vitro ADME, human; details: for Endothelial transport (lower/(upper+lower) compartment): 5 μM in upper chamber, 2 h of incubation
Procedure: We used the well-validated confluent HBMEC two chamber BBB model[32] to investigate endothelium transport with metabolite quantification by Orbitrap LC-MS techniques. (Poly)phenol metabolites were added in the upper chamber and their putative transport through the BBB endothelium assessed after 2 h of incubation (Fig. 1a).
Human brain microvascular endothelial cell (HBMEC) line was used as a simplified and validated in vitro model of the BBB[32], [44], [45], [62]. This cell line was derived from primary cultures of HBMEC transfected with SV40 large T antigen. HBMEC line was cultured in RPMI 1640 medium (Sigma-Aldrich) supplemented with 10% fetal bovine serum (FBS - Biochrom AG), 10% NuSerum IV (BD Biosciences), 1% non-essential amino acids (NEAA - Biochrom AG), 1% minimal essential medium (MEM) vitamins (Biochrom AG), 1 mM sodium pyruvate (Biochrom AG), 2mM L-glutamine (Biochrom AG), and 1% antibiotic-antimycotic solution (Sigma-Aldrich). For immunostaining and cytoprotection studies, cells were seeded at a density of 8 × 10^4 cell/mL in 24-well and 96-well plates, respectively, and treated after 48 h in culture. For integrity and transport studies, cells were seeded on polyester transwell inserts (0.4 μm, Corning Costar Corp., USA) at a density of 8 × 10^4 cell/insert and treated after 8 days in culture. Inserts and plates were coated with rat-tail collagen-I (BD Biosciences, Erembodegem, Belgium) before seeding. All experiments were performed after monolayer formation.
HBMEC were plated in semi-permeable membranes (inserts) placed in cell culture wells. This two-chamber system, where the upper and lower chambers mimic the blood and brain compartments, respectively, and the confluent HBMEC monolayer represents the BBB. Transport assays were conducted in HBSS (Hank’s Balanced Salt Solution) with calcium and magnesium (Gibco), supplemented with 0.1% FBS. Confluent monolayers of HBMEC were incubated with 5 μM of each compound for 2 h, time described for compounds to interact and/or being transported across cells, [69]. […]. Monolayer integrity was ensured in all experiments as described. In the end, cell medium from upper and lower compartments were collected and frozen at −80 °C until analysis. Transport analysis were performed after sample deproteinization by LC-Orbitrap MS as described below.
To 1 mL of upper or lower compartment cell medium it was added: 139 µL of 50% formic acid, ascorbic acid (final concentration of 1 mM) and taxifolin as internal standard (final concentration of 9 µM). To precipitate proteins, 2.5 mL of ACN was added dropwise and samples were vortexed before centrifugation at 3200 g for 15 min. The supernatant was removed and dried under centrifugal evaporation (CentriVap Vaccum Concentrator, Labconco). Samples were dissolved in 5% ACN in 0.1% formic acid and immediately analyzed by LC-Orbitrap MS.
Samples were separated on an HPLC Accela 600 HPLC system (Thermo Scientific, Bremen, Germany) using a C18 Synergi Hydro RP18 column (Phenomenex, Macclesfield, UK) 4 μm particle size and dimensions 2 mm ID × 150 mm. […] Analysis was done on an LTQ OrbitrapTM XL hybrid mass spectrometer (Thermo Scientific, Bremen, Germany).
MS analysis was performed using data-dependent Nth order double play analysis comprising full scan mass range 80–2000 amu, 30 000 resolution, data-type centroid and data dependent MS/MS (60 s of exclusion duration) on the top three most intense ions detected above threshold automatically in the independent scan event. ESI settings were as follows: source voltage, 3.4 kV; capillary temperature was 275 °C with a sheath gas at 40 psi and auxiliary gas at 5 psi. MS data handling software (Xcalibur QualBrowser software, Thermo Electron Corp.) was used to search for predicted metabolites by their appropriate m/z value. All peaks were checked for m/z value and fragmentation products. […]

HBMEC line [3] = assay: Cytoprotection in HBMEC submitted to oxidative stress (H2O2); assay type: cell-based, human; details: pre-incubation 5 µM 24 h, then 300 µM H2O2 24 h
Procedure: HBMEC were incubated in the presence of H2O2 (Sigma-Aldrich). Briefly, 24 h after seeding, cells growth medium was removed and cells were pre-incubated for 24 h with 5 µM of each compound. After pre-incubation, media was replaced by new media containing 300 µM H2O2, for 24 h[71], [72]. In the end, medium was removed and cell viability was assessed using the CellTiter-Blue® Cell Viability Assay (Promega), according to the manufacturer’s instructions.

P-gp = target: T1, P-gp (Homo sapiens, UniProt P08183); assay: P-gp functional assay, Rhodamine 123 accumulation in HBMEC; assay type: cell-based; details: 5 μM
T1 construct: endogenous in cells; host or cells: HBMEC line (human brain microvascular endothelial cells immortalised with SV40 large T antigen)
T1 sequence (P08183 whole entry): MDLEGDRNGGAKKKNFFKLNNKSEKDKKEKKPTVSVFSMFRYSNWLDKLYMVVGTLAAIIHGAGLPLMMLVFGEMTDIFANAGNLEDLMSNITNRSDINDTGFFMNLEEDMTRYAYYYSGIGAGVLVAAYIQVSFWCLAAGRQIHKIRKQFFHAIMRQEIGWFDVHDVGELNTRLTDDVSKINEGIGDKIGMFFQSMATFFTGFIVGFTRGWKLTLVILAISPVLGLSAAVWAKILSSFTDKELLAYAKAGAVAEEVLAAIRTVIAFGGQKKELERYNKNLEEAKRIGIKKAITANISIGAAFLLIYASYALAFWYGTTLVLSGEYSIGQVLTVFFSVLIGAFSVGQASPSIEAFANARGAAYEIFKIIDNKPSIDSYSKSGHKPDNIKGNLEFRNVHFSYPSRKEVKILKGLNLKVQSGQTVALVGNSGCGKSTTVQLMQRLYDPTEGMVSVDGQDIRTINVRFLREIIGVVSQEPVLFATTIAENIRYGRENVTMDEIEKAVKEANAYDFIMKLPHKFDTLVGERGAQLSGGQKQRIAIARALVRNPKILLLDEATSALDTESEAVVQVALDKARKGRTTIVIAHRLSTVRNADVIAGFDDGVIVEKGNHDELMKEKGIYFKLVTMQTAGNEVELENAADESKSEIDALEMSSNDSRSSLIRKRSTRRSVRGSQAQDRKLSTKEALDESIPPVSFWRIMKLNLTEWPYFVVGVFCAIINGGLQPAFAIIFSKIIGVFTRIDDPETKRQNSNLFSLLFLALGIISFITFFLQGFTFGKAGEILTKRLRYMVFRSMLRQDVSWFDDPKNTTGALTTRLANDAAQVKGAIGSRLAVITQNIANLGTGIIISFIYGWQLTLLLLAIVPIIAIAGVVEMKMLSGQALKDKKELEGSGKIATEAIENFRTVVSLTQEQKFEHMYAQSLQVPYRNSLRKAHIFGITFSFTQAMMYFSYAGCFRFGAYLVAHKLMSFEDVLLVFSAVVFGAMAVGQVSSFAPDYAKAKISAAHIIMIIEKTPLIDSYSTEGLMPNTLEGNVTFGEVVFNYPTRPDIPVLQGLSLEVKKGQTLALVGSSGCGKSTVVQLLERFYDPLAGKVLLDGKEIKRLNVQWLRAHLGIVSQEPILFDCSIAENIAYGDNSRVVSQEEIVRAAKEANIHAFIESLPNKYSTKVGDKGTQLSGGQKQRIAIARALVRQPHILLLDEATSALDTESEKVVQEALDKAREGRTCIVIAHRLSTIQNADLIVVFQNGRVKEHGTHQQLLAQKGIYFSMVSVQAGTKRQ
Procedure: Activity of each efflux transporter was determined by measuring cellular accumulation of respective substrate[65], [66], and results were expressed as fold-change compared to the respective control. […] The solution was quickly removed, HBMEC were washed three times with PBS and solubilized in 0.1 M NaOH. Substrate content was determined using a FLUOstar Omega fluorescent plate reader (BMG Labtechnologies, Ortenberg, Germany; for P-gp, excitation at 505 nm, emission at 534 nm; for MRP1, excitation at 495 nm, emission at 516 nm; for BCRP excitation at 503 nm, emission at 512 nm). […] Protein content was evaluated by the Bradford method[67] using Bio-Rad’s Protein Assay reagent (Bio-Rad).

NF-κB p65 = NF-κB p65 phosphorylation (ser536) ratio in N9 microglia (western blot); assay type: cell-based, murine; details: N9 cells; pre-treatment before LPS; 15 to 60 min
Procedure: N9 microglial cells were plated into 6-well plates (5 × 10^5 cells mL^−1) and then pre-incubated with 5 µM of each (poly)phenol metabolite. After 6 h, medium was discarded and cells were washed once with phosphate buffer saline (PBS) prior to addition of fresh medium with 300 ng/mL lipopolysaccharide from Escherichia coli 055:B5 (LPS, Sigma–Aldrich). Pro-inflammatory mediators release to medium were quantified as described below.
NT2 aggregates and N9 protein samples western blot analysis was performed accordingly to[41]. Aggregates were lysed with TX-100 lysis buffer (50 mM Tris, 5 mM EDTA, 150 mM NaCl, 1% Triton X-100, pH 7.4) and N9 protein extraction was performed with RIPA buffer. Primary antibodies were incubated overnight at RT, followed by secondary antibodies (horseradish peroxidase-conjugated, ECL anti-mouse IgG, anti-rat IgG or anti-rabbit IgG; Pierce, Millipore and GE Healthcare), incubated for 2 h at room temperature. Anti-GAPDH antibody (Thermo Scientific) was used as loading control. Primary antibodies used for protein detection were: anti-βIII-Tubulin (Millipore), anti-GFAP (DAKO), and MitoProfile Total OXPHOS WB primary antibody cocktail (Abcam), anti-phospho-NF-κB p65 (ser536) antibody (Cell Signalling), anti-NF-κB p65 (C-20) (Santa Cruz Biotechnology), and anti-IκB-α (C-21) antibody (Santa Cruz Biotechnology). […]

[4] = system: 3D aggregates containing neurons and astrocytes (NT2); assay: Neuroprotection in 3D co-cultures of neurons and astrocytes (t-BHP injury); assay type: cell-based, human; details: pre-incubation 5 µM 24 h, then 300 µM t-BHP, 48 h
Procedure: NTera-2/cl.D1 (NT2) cells, obtained from American Type Cell Culture Collection (ATCC), were differentiated in stirred suspension culture systems, as 3D aggregates, as previously described. A single cell suspension of undifferentiated NT2 cells was seeded in DMEM (Dulbeco Minimum Essential Media), 10% FBS, 1% P/S (all from Invitrogen), in a 125 mL spinner vessel equipped with ball impeller (Wheaton). After three days of aggregation, differentiation was induced by addition of 10 µM retinoic acid (Sigma-Aldrich), for three weeks, with a 50% medium exchange performed every 2–3 days. Following this period (from day 24 onwards), the medium was composed by DMEM, 5% FBS, 1% P/S. Stable 3D co-cultures of neurons and astrocytes were maintained up to day 50 of culture and applied in neuroprotection assays (from day 38 to day 50).
Cell viability was accessed before exposure to test compounds, before t-BHP lesion induction and 48 h after lesion induction by PrestoBlue® Cell Viability Reagent (Thermo Fisher Scientific), accordingly to manufacturer’s instructions. Idebenone (provided by Grupo Tecnimede) was used as positive control. Final cell viability was calculated as a percentage of cell viability before lesion induction.

[5] = system: primary mouse cerebellar granule cells; assay: Neuroprotection in cerebellar granule cells exposed to glutamate excitotoxicity; assay type: cell-based; details: pre-incubation 5 µM 24 h, then 100 µM glutamate 24 h
Procedure: Primary cultures of cerebellar granule cells were prepared according to the already described method. Cells were isolated from cerebella of 7d-old BALB-C mice and 0.5 × 10^6 cell/mL were cultured in Neurobasal Medium (Gibco) supplemented with 2% B-27 without antioxidants (Gibco) and 2% KCl (20 mM, Sigma-Aldrich), containing 0.25% L-glutamine (200 mM, Sigma-Aldrich) and 0.48% penicillin-streptomycin (P/S, 5000 U mL^−1, Gibco). Experiments were performed on 24-well plates with coverslips coated with 50 µg/mL poly-D-lysine (Sigma-Aldrich). 20 µM of cytosine arabinoside (Sigma-Aldrich) was added 48 h after inoculation to prevent glia cell proliferation. All the experiments were performed between days 7–11 in culture.
Physiological concentrations (5 µM) of the two most abundant metabolites were added to the cells at 7 d in culture. Cells were then incubated for 24 h and morphology was evaluated. At day 8 in culture, 100 µM of glutamate (Sigma-Aldrich) was added to the respective wells. Cells were incubated for another 24 h, morphology was evaluated and viability determined by fluorescence microscopy through Propidium Iodide (PI) and Hoechst 33342 staining, as previously described.

HBMEC = HBMEC metabolization: search for novel cellular metabolites by LC-Orbitrap MS; assay type: in vitro ADME, human; details: after addition of Pyr-sulf in upper compartment; compared with acetylcysteine-pyrogallol
Procedure: Search for novel compounds resulting from HBMEC metabolization was performed in the same samples using Xcalibur QualBrowser software using an in-house database of putative bioavailable (poly)phenol metabolites[30]. Putative ID of predicted metabolites was determined by exact mass, according to their appropriate m/z value.

β-III tubulin = assay: Western blot of neuronal marker in 3D aggregates; assay type: cell-based, human; details: pre-incubation with 5µM Pyr-sulf or 200nM Idebenone, normalized to GAPDH
Procedure: NT2 aggregates and N9 protein samples western blot analysis was performed accordingly to[41]. Aggregates were lysed with TX-100 lysis buffer (50 mM Tris, 5 mM EDTA, 150 mM NaCl, 1% Triton X-100, pH 7.4) and N9 protein extraction was performed with RIPA buffer. Primary antibodies were incubated overnight at RT, followed by secondary antibodies (horseradish peroxidase-conjugated, ECL anti-mouse IgG, anti-rat IgG or anti-rabbit IgG; Pierce, Millipore and GE Healthcare), incubated for 2 h at room temperature. Anti-GAPDH antibody (Thermo Scientific) was used as loading control. Primary antibodies used for protein detection were: anti-βIII-Tubulin (Millipore), anti-GFAP (DAKO), and MitoProfile Total OXPHOS WB primary antibody cocktail (Abcam), anti-phospho-NF-κB p65 (ser536) antibody (Cell Signalling), anti-NF-κB p65 (C-20) (Santa Cruz Biotechnology), and anti-IκB-α (C-21) antibody (Santa Cruz Biotechnology). Membranes were developed using Amersham ECL Prime Western Blotting Detection Reagent (GE Healthcare) and visualized using a ChemiDocTM XRS + System (BioRad).

Compound	Cmax [1] [nM]	Endothelial transport (lower/(upper+lower) compartment) (HBMEC line [2])	other results
1-O-methylpyrogallol-O-sulfate [1-MePyr-sulf]	2880 ± 1800	less effectively transported	–
COc1c(O)cccc1OS(=O)(=O)O [2-MePyr-sulf, 2-O-methylpyrogallol-1-O-sulfate]	1970 ± 1000	transported as effectively as Pyr-sulf	–
Cc1ccc(OS(=O)(=O)O)c(O)c1 [4-MeCat-sulf, 4-Methylcatechol O-sulfate]	640 ± 500	more effectively transported than catechol-O-sulfate (Cat-sulf); also recorded: higher endothelial transport percentage	–
COc1c(O)cc(C(=O)O)cc1O [4-MeGA, 4-O-methylgallic acid]	300 ± 100	–	–
COc1c(O)cc(C(=O)O)cc1OS(=O)(=O)O [4-MeGA-sulf, 4-O-methylgallic acid-3-O-sulfate]	2030 ± 1100	increased BBB permeation compared with 4-methylgallic acid (4-MeGA)	–
O=S(=O)(O)Oc1ccccc1O [Cat-sulf, Catechol-O-sulfate]	12200 ± 5900	–	Cell viability of HBMEC after H2O2 injury (HBMEC line [3]): improved cell viability; P-gp activity (Rhodamine 123 accumulation) in the presence of metabolite (P-gp): no statistically- significant alterations; Kinetics of NF-κB phosphorylated-p65/total p65 ratio (NF-κB p65): unchanged; Cell viability of 3D aggregates after t-BHP-induced injury [4]: significant neuroprotection; Cell viability of cerebellar granule cells under glutamate-induced excitotoxicity [5]: improved cell viability; Endothelial transport after treatment with BCRP specific inhibitor Ko 143 (HBMEC line [2]; 5 μM, 1 μM Ko 143, p < 0.05 relatively to No inhibitor): significant increase; Endothelial transport along time (HBMEC line [2]; 5 μM, 2, 6 and 24 h): significant increase in transport percentage
N[C@@H](CCC(=O)N[C@@H](CSc1ccc(O)c(O)c1O)C(=O)NCC(=O)O)C(=O)O [Glutathionyl-pyrogallol]	–	–	Relative abundance (peak areas) of novel metabolite (HBMEC): detected in higher amounts
O=S(=O)(O)Oc1cccc(O)c1O [Pyr-1-sulf, Pyrogallol-1-O-sulfate]	–	–	Endothelial transport after 24 h (HBMEC line [2]; Pyr-sulf mixture 5 μM, 24 h incubation): no transport
O=S(=O)(O)Oc1c(O)cccc1O [Pyr-2-sulf, Pyrogallol-2-O-sulfate]	–	detected only Pyr-2-sulf in the basolateral compartment	–
COc1cc(C(=O)O)ccc1OS(=O)(=O)O [VA-sulf, Vanillic acid 4-O-sulfate]	1340 ± 1300	–	–
COC1=C(OC)C(=O)C(CCCCCCCCCCO)=C(C)C1=O [idebenone]	–	–	β-III tubulin protein levels after t-BHP lesion (β-III tubulin): increased β-III tubulin protein levels
